According to ChEMBL document CHEMBL6083240, “Design, synthesis and biological evaluation of arylpropylamine derivatives as potential multi-target antidepressants” (Bioorg Med Chem, 2024):
Calls of active or inactive are those of the source. The calls are words filed in the database; no cut-off is given here.

Experiments:
[1] = biological target: Sodium-dependent serotonin transporter (Rattus norvegicus, UniProt P31652); assay: Displacement of [3H]-paroxetine from SERT in rat cerebral cortex incubated for 10 mins by liquid scintillation counting method; assay type: tissue-based
Chain of Sodium-dependent serotonin transporter (P31652 whole entry): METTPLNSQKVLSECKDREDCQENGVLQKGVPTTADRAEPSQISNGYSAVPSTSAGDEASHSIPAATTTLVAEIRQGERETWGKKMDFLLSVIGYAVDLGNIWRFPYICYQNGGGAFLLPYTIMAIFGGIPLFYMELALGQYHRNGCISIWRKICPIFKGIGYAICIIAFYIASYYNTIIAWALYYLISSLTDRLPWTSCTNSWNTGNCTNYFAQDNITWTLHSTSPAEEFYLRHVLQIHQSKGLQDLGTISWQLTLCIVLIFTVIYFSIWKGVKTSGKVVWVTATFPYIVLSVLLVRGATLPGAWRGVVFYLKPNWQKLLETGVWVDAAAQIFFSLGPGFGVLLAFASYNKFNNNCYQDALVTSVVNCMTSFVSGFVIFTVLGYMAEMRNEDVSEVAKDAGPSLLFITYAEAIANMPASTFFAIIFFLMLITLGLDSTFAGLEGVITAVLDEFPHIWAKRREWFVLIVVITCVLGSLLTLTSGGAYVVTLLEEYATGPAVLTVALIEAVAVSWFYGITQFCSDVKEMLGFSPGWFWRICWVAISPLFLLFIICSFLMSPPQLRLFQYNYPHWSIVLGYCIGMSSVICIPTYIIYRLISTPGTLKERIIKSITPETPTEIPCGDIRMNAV

Transporter = Transporter (Rattus norvegicus, UniProt Q63380); assay: Displacement of [3H]-nisoxetine from NET in rat hippocampal membrane incubated for 8 hrs by liquid scintillation counting method; assay type: cell membranes, Hippocampus
Chain of Transporter (Q63380 whole entry): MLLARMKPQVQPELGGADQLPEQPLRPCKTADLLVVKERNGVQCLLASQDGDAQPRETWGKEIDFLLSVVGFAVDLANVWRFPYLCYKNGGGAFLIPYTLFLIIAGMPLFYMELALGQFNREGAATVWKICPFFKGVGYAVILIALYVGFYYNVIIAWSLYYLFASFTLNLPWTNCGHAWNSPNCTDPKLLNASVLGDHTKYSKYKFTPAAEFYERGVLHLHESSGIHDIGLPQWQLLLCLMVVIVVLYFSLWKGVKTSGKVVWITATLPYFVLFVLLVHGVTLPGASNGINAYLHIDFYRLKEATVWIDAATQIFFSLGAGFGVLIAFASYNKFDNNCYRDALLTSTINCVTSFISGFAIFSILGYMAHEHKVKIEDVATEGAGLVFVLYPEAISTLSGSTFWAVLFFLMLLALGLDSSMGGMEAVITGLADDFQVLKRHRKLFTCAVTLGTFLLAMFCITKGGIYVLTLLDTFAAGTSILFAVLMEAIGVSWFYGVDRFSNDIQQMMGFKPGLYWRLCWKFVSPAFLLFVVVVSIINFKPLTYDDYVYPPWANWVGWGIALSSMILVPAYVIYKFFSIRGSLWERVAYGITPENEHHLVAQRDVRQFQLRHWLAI

[2] = biological target: T1, 5-hydroxytryptamine receptor 2A (Homo sapiens, UniProt P28223); assay: Antagonist activity at 5-HT2A in HEK293 cells at 10 uM incubated for 60 mins by FLIPR assay relative to control; assay type: cell-based; parameters: scale not given: the % may be the effect or the level left; settings: filed as antagonist
T1 sequence (P28223 whole entry): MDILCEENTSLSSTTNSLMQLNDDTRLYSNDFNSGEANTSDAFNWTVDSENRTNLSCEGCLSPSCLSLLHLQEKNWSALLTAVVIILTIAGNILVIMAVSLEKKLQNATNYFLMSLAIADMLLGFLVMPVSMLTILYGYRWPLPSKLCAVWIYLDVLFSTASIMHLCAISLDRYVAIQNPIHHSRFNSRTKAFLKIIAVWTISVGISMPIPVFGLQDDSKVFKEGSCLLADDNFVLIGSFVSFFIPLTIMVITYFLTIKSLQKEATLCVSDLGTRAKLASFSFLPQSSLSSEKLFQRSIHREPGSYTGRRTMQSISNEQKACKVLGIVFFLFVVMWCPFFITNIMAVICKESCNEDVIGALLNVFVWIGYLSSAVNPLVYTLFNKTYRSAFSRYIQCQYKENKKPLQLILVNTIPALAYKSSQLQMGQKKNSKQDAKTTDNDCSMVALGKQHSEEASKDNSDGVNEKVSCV

[3] = biological target: T1, 5-hydroxytryptamine receptor 2A; assay: Agonist activity at 5-HT2A in HEK293 cells at 10 uM incubated for 60 mins by FLIPR assay relative to control; assay type: functional, cell-based
[4] = biological target: Sodium-dependent serotonin transporter (Rattus norvegicus) (UniProt P31652); assay: Antagonist activity at rat cerebral cortex membrane SERT at 10 uM incubated for 10 mins in presence of [3H]5-HT relative to control; assay type: cell membranes; parameters: scale not given: the % may be the effect or the level left; settings: filed as antagonist
Chain of Sodium-dependent serotonin transporter (Rattus norvegicus) (P31652 whole entry): as the sequence (P31652 whole entry) above

[5] = biological target: 5-hydroxytryptamine receptor 2A (Rattus norvegicus, UniProt P14842); assay: Displacement of [3H]-ketanserin from 5-HT2A in rat cerebral cortex incubated for 15 mins by liquid scintillation counting method; assay type: tissue-based
Chain of 5-hydroxytryptamine receptor 2A (Rattus norvegicus, UniProt P14842) (P14842 whole entry): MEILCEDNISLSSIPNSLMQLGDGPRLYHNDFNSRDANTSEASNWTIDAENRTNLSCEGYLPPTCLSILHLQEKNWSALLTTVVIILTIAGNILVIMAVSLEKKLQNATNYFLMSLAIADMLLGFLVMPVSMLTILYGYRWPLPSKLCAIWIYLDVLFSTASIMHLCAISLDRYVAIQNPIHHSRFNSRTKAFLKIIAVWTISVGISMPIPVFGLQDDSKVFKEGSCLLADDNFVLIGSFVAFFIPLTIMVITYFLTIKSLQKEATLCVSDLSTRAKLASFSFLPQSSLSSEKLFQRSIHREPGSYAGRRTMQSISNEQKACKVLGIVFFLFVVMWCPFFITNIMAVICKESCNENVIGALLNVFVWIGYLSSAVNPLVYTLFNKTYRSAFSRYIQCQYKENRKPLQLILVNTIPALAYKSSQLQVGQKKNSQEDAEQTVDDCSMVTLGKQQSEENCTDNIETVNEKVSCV

[6] = biological target: T2, 5-hydroxytryptamine receptor 2C (Rattus norvegicus, UniProt P08909); assay: Displacement of [3H]-mesulergine from 5-HT2C in rat cerebral cortex incubated for 15 mins by liquid scintillation counting method; assay type: tissue-based
T2 sequence (P08909 whole entry): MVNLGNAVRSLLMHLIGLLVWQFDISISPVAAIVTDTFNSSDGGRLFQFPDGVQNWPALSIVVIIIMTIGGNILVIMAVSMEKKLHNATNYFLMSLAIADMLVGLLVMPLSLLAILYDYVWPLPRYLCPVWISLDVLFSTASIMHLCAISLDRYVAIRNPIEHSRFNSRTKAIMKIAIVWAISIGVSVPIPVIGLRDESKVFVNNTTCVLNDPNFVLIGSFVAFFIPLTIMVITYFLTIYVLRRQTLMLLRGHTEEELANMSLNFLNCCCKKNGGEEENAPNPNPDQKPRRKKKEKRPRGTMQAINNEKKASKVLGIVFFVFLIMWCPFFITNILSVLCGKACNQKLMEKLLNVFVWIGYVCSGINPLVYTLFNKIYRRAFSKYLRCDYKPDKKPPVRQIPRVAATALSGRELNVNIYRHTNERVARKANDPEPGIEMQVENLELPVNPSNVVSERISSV

[7] = biological target: T3, Alpha-1A adrenergic receptor (Rattus norvegicus, UniProt P43140); assay: Displacement of [3H]-prazosin from adrenergic alpha-1 receptor in rat cerebral cortex incubated for 60 mins by liquid scintillation counting method; assay type: toxicity, tissue-based
T3 sequence (P43140 whole entry): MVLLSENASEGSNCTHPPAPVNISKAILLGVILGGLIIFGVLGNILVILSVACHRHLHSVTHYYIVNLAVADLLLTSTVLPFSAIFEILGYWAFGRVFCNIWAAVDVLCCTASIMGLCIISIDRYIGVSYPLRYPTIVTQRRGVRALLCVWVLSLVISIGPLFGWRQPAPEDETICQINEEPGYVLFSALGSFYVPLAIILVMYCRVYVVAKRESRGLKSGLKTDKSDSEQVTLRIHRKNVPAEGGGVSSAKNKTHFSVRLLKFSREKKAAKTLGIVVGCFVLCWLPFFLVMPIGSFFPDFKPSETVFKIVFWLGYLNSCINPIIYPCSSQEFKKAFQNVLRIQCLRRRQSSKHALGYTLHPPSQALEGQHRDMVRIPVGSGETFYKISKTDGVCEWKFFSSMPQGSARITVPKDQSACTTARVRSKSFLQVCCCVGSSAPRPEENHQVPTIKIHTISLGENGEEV

histamine H1 receptor = assay: Displacement of [3H]-pyrilamine from H1 receptor in guinea pig cerebellum membrane incubated for 60 mins by liquid scintillation counting method; assay type: toxicity, cell membranes, Cavia porcellus; settings: probe [3H]-pyrilamine
[8] = biological target: Voltage-gated inwardly rectifying potassium channel KCNH2 (Homo sapiens, UniProt Q12809); assay: Inhibition of human ERG expressed in HEK293 cells by whole-cell patch clamp method; assay type: toxicity, cell-based
Chain of Voltage-gated inwardly rectifying potassium channel KCNH2 (Q12809 whole entry): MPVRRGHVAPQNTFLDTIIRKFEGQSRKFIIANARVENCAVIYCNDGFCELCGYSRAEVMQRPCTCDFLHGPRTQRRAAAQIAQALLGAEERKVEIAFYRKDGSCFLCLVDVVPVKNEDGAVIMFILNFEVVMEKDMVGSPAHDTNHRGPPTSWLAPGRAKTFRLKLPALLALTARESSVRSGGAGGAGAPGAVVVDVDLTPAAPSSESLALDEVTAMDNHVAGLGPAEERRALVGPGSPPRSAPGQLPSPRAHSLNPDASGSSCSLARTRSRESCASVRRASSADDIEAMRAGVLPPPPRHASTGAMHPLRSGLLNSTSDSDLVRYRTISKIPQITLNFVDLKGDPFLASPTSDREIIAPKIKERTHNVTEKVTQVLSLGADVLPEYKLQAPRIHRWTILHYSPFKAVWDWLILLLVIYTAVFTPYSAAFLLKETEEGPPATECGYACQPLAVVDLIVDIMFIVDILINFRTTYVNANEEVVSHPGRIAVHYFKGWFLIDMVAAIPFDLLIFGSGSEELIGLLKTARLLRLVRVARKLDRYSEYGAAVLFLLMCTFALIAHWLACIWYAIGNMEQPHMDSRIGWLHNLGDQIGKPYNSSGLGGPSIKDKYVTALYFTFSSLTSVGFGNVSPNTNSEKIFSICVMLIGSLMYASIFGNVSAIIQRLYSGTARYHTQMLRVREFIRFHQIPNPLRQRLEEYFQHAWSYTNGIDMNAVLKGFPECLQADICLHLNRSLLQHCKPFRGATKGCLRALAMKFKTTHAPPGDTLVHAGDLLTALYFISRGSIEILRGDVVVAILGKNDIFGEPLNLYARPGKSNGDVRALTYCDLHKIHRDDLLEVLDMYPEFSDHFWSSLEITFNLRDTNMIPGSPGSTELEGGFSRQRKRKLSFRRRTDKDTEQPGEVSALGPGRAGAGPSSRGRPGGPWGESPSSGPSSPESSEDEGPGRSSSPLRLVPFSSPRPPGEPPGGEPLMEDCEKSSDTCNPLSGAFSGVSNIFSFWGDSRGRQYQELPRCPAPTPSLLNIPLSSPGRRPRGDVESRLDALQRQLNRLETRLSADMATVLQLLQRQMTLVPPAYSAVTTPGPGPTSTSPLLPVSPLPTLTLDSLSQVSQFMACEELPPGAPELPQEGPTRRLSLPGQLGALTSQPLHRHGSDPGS

Rattus norvegicus = assay: Antidepressant activity against ACTH-induced treatment resistant depression in Sprague-Dawley rat model assessed as reduction in immobility time at 30 mg/kg, ip by forced swimming test; assay type: functional, organism-based
[9] = biological target: T4, 5-hydroxytryptamine receptor 2C (Homo sapiens) (UniProt P28335); assay: Antagonist activity at 5-HT2C in HEK293 cells at 10 uM incubated for 60 mins by FLIPR assay relative to control; assay type: cell-based; parameters: scale not given: the % may be the effect or the level left; settings: filed as antagonist
T4 sequence (whole entry): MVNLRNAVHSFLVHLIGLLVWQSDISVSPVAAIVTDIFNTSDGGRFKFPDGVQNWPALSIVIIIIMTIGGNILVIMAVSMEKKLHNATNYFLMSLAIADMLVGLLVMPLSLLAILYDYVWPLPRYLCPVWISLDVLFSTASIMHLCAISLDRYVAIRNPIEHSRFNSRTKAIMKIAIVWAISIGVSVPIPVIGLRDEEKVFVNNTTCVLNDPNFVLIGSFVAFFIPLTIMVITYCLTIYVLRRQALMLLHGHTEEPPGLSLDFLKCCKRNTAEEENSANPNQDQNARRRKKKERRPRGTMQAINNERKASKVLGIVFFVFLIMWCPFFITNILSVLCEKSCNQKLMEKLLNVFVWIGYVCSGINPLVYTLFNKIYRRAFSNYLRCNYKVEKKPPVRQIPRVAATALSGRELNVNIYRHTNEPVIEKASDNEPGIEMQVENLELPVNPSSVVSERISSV

[10] = biological target: 5-hydroxytryptamine receptor 2C (Homo sapiens, UniProt P28335); assay: Antagonist activity at 5-HT2C in HEK293 cells incubated for 60 mins by FLIPR assay; assay type: cell-based

**Q.** With CNCCC(Oc1cccc2c1OCO2)c1ccccc1F (configuration not stated) as the molecule, how does the Ki [1] read?
**A.** 84.9 nM

**Q.** What about the Ki (Transporter) of the same molecule?
**A.** 20.5 nM

**Q.** What does the source list for COc1ccccc1C(CCN(C)C)Oc1cccc2c1OCO2 (configuration not stated)?
**A.** Ki [1]: 221 nM; Ki (Transporter): 253 nM

**Q.** With CNCCC(Oc1cccc2c1OCO2)c1ccccc1Cl (configuration not stated) as the molecule, how does the Ki [1] read?
**A.** 57.4 nM

**Q.** And the Ki (Transporter)?
**A.** 26.6 nM

**Q.** O=C(c1ccc(F)cc1)C1CCN(CCn2c(=O)[nH]c3ccccc3c2=O)CC1 was tested. Which Activity [2] did it give?
**A.** 98.3%

**Q.** Which Ki [1] does the source give for CN(C)CCC(Oc1cccc2c1OCO2)c1ccc(F)c(F)c1 (configuration not stated) here?
**A.** 237 nM

**Q.** What about the Ki (Transporter) of the same molecule?
**A.** 139 nM

**Q.** Which results are given for CNCCC(Oc1cccc2c1OCO2)c1ccc(C)cc1 (configuration not stated)?
**A.** Ki [1]: 17.4 nM; Ki (Transporter): 48.8 nM

**Q.** Which Activity [3] does the source give for NCCc1c[nH]c2ccc(O)cc12 here?
**A.** 5.6%

**Q.** With CN(C)CCCC1(c2ccc(F)cc2)OCc2cc(C#N)ccc21 (configuration not stated) as the molecule, how does the Activity [4] read?
**A.** 100%

**Q.** How did the Ki [1] turn out when CN(C)CCC(Oc1cccc2c1OCO2)c1cccc(Cl)c1 (configuration not stated) was run?
**A.** 103 nM

**Q.** And the Ki (Transporter)?
**A.** 70.4 nM

**Q.** CN(C)CCC(Oc1cccc2c1OCO2)c1ccc(Cl)cc1 (configuration not stated) was tested. Which Ki [1] did it give?
**A.** 19.9 nM

**Q.** And the Ki (Transporter)?
**A.** 10.4 nM

**Q.** Which Ki [1] does the source give for CNCCC(Oc1cccc2c1OCO2)c1ccc(Cl)cc1 (configuration not stated) here?
**A.** 77.3 nM

**Q.** What about the Ki (Transporter) of the same molecule?
**A.** 14.8 nM

**Q.** Which results are given for CNCCC(Oc1cccc2c1OCO2)c1cccc(Cl)c1 (configuration not stated)?
**A.** Ki [1]: 112 nM; Ki (Transporter): 4.8 nM

**Q.** Which Ki [1] does the source give for Cc1ccccc1C(CCN(C)C)Oc1cccc2c1OCO2 (configuration not stated) here?
**A.** 157 nM

**Q.** And the Ki (Transporter)?
**A.** 247 nM

**Q.** What does the source list for CNCCC(Oc1cccc2c1OCO2)c1ccc(F)c(F)c1 (configuration not stated)?
**A.** Ki [1]: 96.3 nM; Ki (Transporter): 6.6 nM

**Q.** What does the source list for COc1ccc(C(CCN(C)C)Oc2cccc3c2OCO3)cc1OC (configuration not stated)?
**A.** Ki [1]: 245 nM; Ki (Transporter): 222 nM

**Q.** For CN(C)CCC(Oc1cccc2c1OCO2)c1ccc2c(c1)OCO2 (configuration not stated), which Ki [1] is on record?
**A.** 9.5 nM

**Q.** What about the Ki (Transporter) of the same molecule?
**A.** 4.9 nM

**Q.** And the Ki [5]?
**A.** 55.1 nM

**Q.** And the Ki [6]?
**A.** 105 nM

**Q.** What about the Ki [7] of the same molecule?
**A.** 134 nM

**Q.** What about the Ki at 60 min (histamine H1 receptor) of the same molecule?
**A.** 426 nM

**Q.** What about the IC50 [8] of the same molecule?
**A.** 371 nM

**Q.** Fc1ccc([C@@H]2CCNC[C@H]2COc2ccc3c(c2)OCO3)cc1 was tested. Which Activity (Rattus norvegicus) did it give?
**A.** inactive

**Q.** For CNCCC(Oc1cccc2c1OCO2)c1cccc(F)c1 (configuration not stated), which Ki [1] is on record?
**A.** 59.3 nM

**Q.** And the Ki (Transporter)?
**A.** 7.5 nM

**Q.** Which results are given for CNCCC(Oc1cccc2c1OCO2)c1cccc(C)c1 (configuration not stated)?
**A.** Ki [1]: 50.6 nM; Ki (Transporter): 20.4 nM

**Q.** Which results are given for Cc1cc2c(cc1Cl)N(C(=O)Nc1ccc(Oc3cccnc3C)nc1)CC2 [SB-242084]?
**A.** Activity [9]: 98.6%; IC50 [10]: 19.7 nM

**Q.** For CNCCC(Oc1cccc2c1OCO2)c1ccc(OC)cc1 (configuration not stated), which Ki [1] is on record?
**A.** 109 nM

**Q.** What about the Ki (Transporter) of the same molecule?
**A.** 25.5 nM

**Q.** Which results are given for NCCC(Oc1cccc2c1OCO2)c1ccccc1 (configuration not stated)?
**A.** Ki [1]: 217 nM; Ki (Transporter): 51 nM

**Q.** Which results are given for CN(C)CCC(Oc1cccc2c1OCO2)c1cccc(F)c1 (configuration not stated)?
**A.** Ki [1]: 15.1 nM; Ki (Transporter): 3 nM; Ki [5]: 89.3 nM; Ki [6]: 63.4 nM; Ki [7]: 1130 nM; Ki at 60 min (histamine H1 receptor): 549 nM; IC50 [8]: 940 nM
